BindingDB's records for doi:10.1021/jm0509703 (Takeda Pharmaceutical, 2006)

Experiments:
[1] = Inhibition of membrane fusion between HIV1 JR-FL Env-expressing COS7 cells and MOLT4/CCR5
[2] = Inhibition of replication of R5 HIV1 Ba-L in MOLT4/CCR5 cells

Row | SMILES | IC50 [1] [nM] | IC50 [2] [nM]
1 | CCCCOCCOc1ccc(-c2ccc3c(c2)C=C(C(=O)Nc2ccc([S+]([O-])Cc4cncn4CCC)cc2)CCCN3Cc2cnn(C)c2)cc1 (stereo not given) | 0.21 | 2.3
2 | CCCCOCCOc1ccc(-c2ccc3c(c2)C=C(C(=O)Nc2ccc([S+]([O-])Cc4nncn4CCC)cc2)CCCN3CCC)cc1 [(S)-(-)-8-{4-[2-(butoxy)ethoxy]phenyl}-1-propyl-N-(4-{[(4-propyl-4H-1,2,4-triazol-3-yl)methyl]sulfinyl}phenyl)-1,2,3,4-tetrahydro-1-benzazocine-5-carboxamide] | 0.95 | 
3 | CCCCOCCOc1ccc(-c2ccc3c(c2)C=C(C(=O)Nc2ccc([S+]([O-])Cc4cncn4CCC)cc2)CCCCN3CC(C)C)cc1 [(S)-(-)-9-{4-[2-(butoxy)ethoxy]phenyl}-1-isobutyl-N-(4-{[(1-propyl-1H-imidazol-5-yl)methyl]sulfinyl}phenyl)-2,3,4,5-tetrahydro-1H-1-benzazonine-6-carboxamide] | 0.48 | 2.1
4 | CCCCOCCOc1ccc(-c2ccc3c(c2)C=C(C(=O)Nc2ccc([S+]([O-])Cc4nncn4CCC)cc2)CCCN3CC(C)C)cc1 (stereo not given) | 0.19 | 
5 | CCCCOCCOc1ccc(-c2ccc3c(c2)C=C(C(=O)Nc2ccc([S+]([O-])Cc4cncn4CCC)cc2)CCCN3CCC)cc1 [(S)-(-)-8-{4-[2-(butoxy)ethoxy]phenyl}-1-propyl-N-(4-{[(1-propyl-1H-imidazol-5-yl)methyl]sulfinyl}phenyl)-1,2,3,4-tetrahydro-1-benzazocine-5-carboxamide] | 0.24 | 1.4
6 | CCCCOCCOc1ccc(-c2ccc3c(c2)C=C(C(=O)Nc2ccc([S+]([O-])Cc4cncn4CCC)cc2)CCN3CC(C)C)cc1 (stereo not given) [7-(4-(2-butoxyethoxy)phenyl)-1-isobutyl-N-(4-((1-propyl-1H-imidazol-5-yl)methylsulfinyl)phenyl)-2,3-dihydro-1H-benzo[b]azepine-4-carboxamide] | 1 | 5.3
